{
  "source": "patent US12539292B2",
  "about": "“BRM targeting compounds and associated methods of use” (Arvinas Operations, Inc., priority 2018, dated 2026)",
  "target": "T1, BRM (Homo sapiens, UniProt P51531)",
  "T1 construct": "In-Cell Western Screen of BRM Degradation in SW1573 Cells; endogenous in cells; host or cells: SW1573",
  "T1 sequence (P51531 whole entry)": "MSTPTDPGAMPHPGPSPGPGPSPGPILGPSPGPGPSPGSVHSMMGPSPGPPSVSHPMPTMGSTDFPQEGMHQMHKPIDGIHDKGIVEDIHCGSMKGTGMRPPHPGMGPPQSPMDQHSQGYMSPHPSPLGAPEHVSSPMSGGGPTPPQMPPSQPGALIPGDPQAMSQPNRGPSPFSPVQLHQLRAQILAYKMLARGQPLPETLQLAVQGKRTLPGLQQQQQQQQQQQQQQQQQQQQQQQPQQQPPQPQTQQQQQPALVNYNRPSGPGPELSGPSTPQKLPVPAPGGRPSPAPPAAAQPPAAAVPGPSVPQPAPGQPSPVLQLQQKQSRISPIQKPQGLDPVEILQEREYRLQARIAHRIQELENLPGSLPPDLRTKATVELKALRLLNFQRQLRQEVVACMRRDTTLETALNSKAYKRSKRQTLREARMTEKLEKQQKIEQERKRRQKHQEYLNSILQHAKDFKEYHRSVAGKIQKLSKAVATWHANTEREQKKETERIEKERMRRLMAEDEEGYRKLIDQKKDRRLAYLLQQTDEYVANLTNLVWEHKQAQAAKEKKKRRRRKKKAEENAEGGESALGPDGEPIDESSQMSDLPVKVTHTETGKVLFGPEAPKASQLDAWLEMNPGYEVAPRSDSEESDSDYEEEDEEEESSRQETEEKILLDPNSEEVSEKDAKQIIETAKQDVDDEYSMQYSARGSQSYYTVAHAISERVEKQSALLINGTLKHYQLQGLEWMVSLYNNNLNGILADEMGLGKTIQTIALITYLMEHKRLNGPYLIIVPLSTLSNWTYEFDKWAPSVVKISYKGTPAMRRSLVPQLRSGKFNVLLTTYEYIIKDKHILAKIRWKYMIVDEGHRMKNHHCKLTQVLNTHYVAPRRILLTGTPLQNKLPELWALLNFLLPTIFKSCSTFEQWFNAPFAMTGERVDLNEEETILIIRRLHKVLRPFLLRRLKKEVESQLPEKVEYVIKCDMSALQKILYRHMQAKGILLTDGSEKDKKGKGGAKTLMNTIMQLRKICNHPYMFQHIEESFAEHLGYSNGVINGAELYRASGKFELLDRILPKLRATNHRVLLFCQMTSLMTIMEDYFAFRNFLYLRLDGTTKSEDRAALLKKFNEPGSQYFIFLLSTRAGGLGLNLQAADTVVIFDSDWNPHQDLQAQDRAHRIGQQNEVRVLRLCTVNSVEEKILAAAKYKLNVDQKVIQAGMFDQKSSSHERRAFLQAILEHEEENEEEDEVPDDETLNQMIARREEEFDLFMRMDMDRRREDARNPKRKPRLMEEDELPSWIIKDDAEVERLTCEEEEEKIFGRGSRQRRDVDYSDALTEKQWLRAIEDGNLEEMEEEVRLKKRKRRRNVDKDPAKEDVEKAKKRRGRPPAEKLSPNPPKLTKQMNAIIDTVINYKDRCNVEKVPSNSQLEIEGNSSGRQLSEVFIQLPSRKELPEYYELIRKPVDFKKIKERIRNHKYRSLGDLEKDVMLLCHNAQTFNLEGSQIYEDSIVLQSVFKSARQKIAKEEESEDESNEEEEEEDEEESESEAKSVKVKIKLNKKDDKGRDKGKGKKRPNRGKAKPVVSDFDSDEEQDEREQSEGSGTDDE",
  "assay": "In-cell Western screen of BRM degradation in SW1573 cells (Dmax and DC50)",
  "format": "cell-based",
  "experimental": "In-Cell Western Screen of BRM Degradation in SW1573 Cells\nTo assess BRM degradation (Dmax and DC50), cells were seeded at 8000/well in 96-well black/clear-bottom plates in 180 μL DMEM growth media (containing 1% pen-strep, 1% HEPES and 10% FBS) per well. Plates were incubated overnight to allow adhesion. The next morning cells were treated by adding 20 μL of 10× compound (1% DMSO) to appropriate wells and returned to incubator for overnight (18-20 hours). The final DMSO concentration was 0.1%.\nFor processing, the plates were removed from incubator, the media was removed, and immediately 200 μL of cold (4° C.) DPBS was added to all wells. DPBS was then removed, and 50 μL of 4% paraformaldehyde (PFA) in DPBS (4° C.) was added to all wells, and the plates were incubated at room temperature for 20 minutes. PFA was then removed, and 200 μL of TBS-T containing 0.5% Triton X-100 was added to all wells, and the plates were incubated at room temperature for 30 minutes. TBS-T containing 0.5% Triton X-100 was then removed, and 50 μL of Li-Cor blocking solution was added, and the plates were incubated at room temperature for a minimum of one hour.\nThe next day plates were washed three times with TBS-T, 200 μL per well. Fifty (50) μL of secondary antibody cocktail in LI-COR blocking solution (anti-rabbit_800 nm and anti-mouse_680 nm) was added to all wells (diluted 1:5000). The plates were incubated at room temperature for at least one hour while protected from light. The plates were washed twice with TBS-T, 200 μL per well.\nTo read each plate TBS-T was removed, and each plate was inverted tapped on a paper towel. The plates were read on the LI-COR Odyssey with default intensity settings of 5.0 for both channels. LI-COR images were analyzed with the in-cell Western feature of Image Studio Lite.",
  "key": {"[1]": {"conditions": "BRM degradation, SW1573 cells, read-out: DC50"}, "[2]": {"conditions": "target protein degradation, read-out: BRM DC50"}, "[3]": {"conditions": "BRM degradation, SW1573 cells, Table 2D, read-out: **Dmax (%) (% degraded)"}, "[4]": {"conditions": "BRM degradation, SW1573 cells, Table 2D, read-out: *DC50"}, "[5]": {"conditions": "BRM degradation, SW1573 cells, tested at the top concentration of between 0.3 and 10 μM, read-out: Dmax (%) (% degraded)"}, "[6]": {"conditions": "BRM degradation, SW1573 cells, when tested at the top concentration of between 0.3 and 10 μM, read-out: Dmax (%) (% degraded)"}},
  "note": "Read-outs that look alike come from different tables or passages of the source.",
  "data": [
    {"smiles": "Cc1ncsc1-c1ccc([C@H](C)NC(=O)[C@@H]2C[C@@H](O)CN2C(=O)[C@@H](c2cc(N3CCC(CN4CCC(O[C@H]5C[C@H](Oc6cc(N7C8CCC7CN(c7cc(-c9ccccc9O)nnc7N)C8)ccn6)C5)CC4)CC3)no2)C(C)C)c(F)c1F", "note": "[compound 679, (2S,4R)-1-((2R)-2-(3-(4-((4-((1r,3r)-3-((4-(3-(3-amino-6-(2-hydroxyphenyl)pyridazin-4-yl)-3,8-diazabicyclo[3.2.1]octan-8-yl)pyridin-2-yl)oxy)cyclobutoxy)piperidin-1-yl)methyl)piperidin-1-yl)isoxazol-5-yl)-3-methylbutanoyl)-N-((S)-1-(2,3-difluoro-4-(4-methylthiazol-5-yl)phenyl)ethyl)-4-hydroxypyrrolidine-2-carboxamide]", "values": [
      {"measurement": "DC50", "setting": "[1]", "result": "< 2.5", "unit": "nM"},
      {"measurement": "Dmax", "setting": "BRM degradation, SW1573 cells, read-out: Dmax (% degraded)", "result": "> 75", "unit": "%"}
    ]},
    {"smiles": "Cc1ncsc1-c1ccc([C@H](C)NC(=O)[C@@H]2C[C@@H](O)CN2C(=O)[C@H](c2cc(OCCN3CCC(O[C@H]4C[C@H](OCCN5CCOC6(CCN(c7cc(-c8ccccc8O)nnc7N)CC6)C5)C4)CC3)no2)C(C)C)cc1", "note": "[compound 358, (2S,4R)-1-((S)-2-(3-(2-(4-((1r,3S)-3-(2-(9-(3-amino-6-(2-hydroxyphenyl)pyridazin-4-yl)-1-oxa-4,9-diazaspiro[5.5]undecan-4-yl)ethoxy)cyclobutoxy)piperidin-1-yl)ethoxy)isoxazol-5-yl)-3-methylbutanoyl)-4-hydroxy-N-((S)-1-(4-(4-methylthiazol-5-yl)phenyl)ethyl)pyrrolidine-2-carboxamide]", "values": [
      {"measurement": "DC50", "setting": "[2]", "result": "> 30", "unit": "nM"}
    ]},
    {"smiles": "Cc1ncsc1-c1ccc([C@H](C)NC(=O)[C@@H]2C[C@@H](O)CN2C(=O)[C@H](c2cc(OCC[C@@H]3CCN(C[C@H]4C[C@H](Oc5cc(N6C7CCC6CN(c6cc(-c8ccccc8O)nnc6N)C7)ccn5)C4)[C@H](C)C3)no2)C(C)C)cc1", "note": "(racemic) [compound 579, (2S,4R)-1-((2S)-2-(3-(2-((2R,4R)-1-(((1r,3R)-3-((4-(3-(3-amino-6-(2-hydroxyphenyl)pyridazin-4-yl)-3,8-diazabicyclo[3.2.1]octan-8-yl)pyridin-2-yl)oxy)cyclobutyl)methyl)-2-methylpiperidin-4-yl)ethoxy)isoxazol-5-yl)-3-methylbutanoyl)-4-hydroxy-N-((S)-1-(4-(4-methylthiazol-5-yl)phenyl)ethyl)pyrrolidine-2-carboxamide]", "values": [
      {"measurement": "Dmax", "setting": "[3]", "result": "> 75", "unit": "%"},
      {"measurement": "DC50", "setting": "[4]", "result": "< 2.5", "unit": "nM"}
    ]},
    {"smiles": "Cc1ncsc1-c1ccc([C@H](CO)NC(=O)[C@@H]2C[C@@H](O)CN2C(=O)[C@H](c2cc(OCCN3CCC(O[C@H]4C[C@H](Oc5cc(N6C7CCC6CN(c6cc(-c8ccccc8O)nnc6N)C7)ccn5)C4)CC3)no2)C(C)C)cc1", "note": "[compound 200, (2S,4R)-1-((2S)-2-(3-(2-(4-((1r,3S)-3-((4-(3-(3-amino-6-(2-hydroxyphenyl)pyridazin-4-yl)-3,8-diazabicyclo[3.2.1]octan-8-yl)pyridin-2-yl)oxy)cyclobutoxy)piperidin-1-yl)ethoxy)isoxazol-5-yl)-3-methylbutanoyl)-4-hydroxy-N-((R)-2-hydroxy-1-(4-(4-methylthiazol-5-yl)phenyl)ethyl)pyrrolidine-2-carboxamide]", "values": [
      {"measurement": "DC50", "setting": "[1]", "result": "2.5 to 10", "unit": "nM"},
      {"measurement": "Dmax", "setting": "[5]", "result": "> 75", "unit": "%"}
    ]},
    {"smiles": "Cc1ncsc1-c1ccc([C@H](CCC#N)NC(=O)[C@@H]2C[C@@H](O)CN2C(=O)[C@H](c2cc(OCCN3CCC(O[C@H]4C[C@H](Oc5cc(N6C7CCC6CN(c6cc(-c8ccccc8O)nnc6N)C7)ccn5)C4)CC3)no2)C(C)C)cc1", "note": "[compound 532, (2S,4R)-1-((2S)-2-(3-(2-(4-((1r,3S)-3-((4-(3-(3-amino-6-(2-hydroxyphenyl)pyridazin-4-yl)-3,8-diazabicyclo[3.2.1]octan-8-yl)pyridin-2-yl)oxy)cyclobutoxy)piperidin-1-yl)ethoxy)isoxazol-5-yl)-3-methylbutanoyl)-N-((S)-3-cyano-1-(4-(4-methylthiazol-5-yl)phenyl)propyl)-4-hydroxypyrrolidine-2-carboxamide]", "values": [
      {"measurement": "DC50", "setting": "BRM degradation, read-out: BRM DC50", "result": "> 30", "unit": "nM"}
    ]},
    {"smiles": "Cc1ncsc1-c1ccc([C@H](C)NC(=O)[C@@H]2C[C@@H](O)CN2C(=O)[C@@H](c2cc(N3CCC(OC4CCN(CC5CC(CN6CCC([C@@H](C)n7cc(-c8cc(-c9ccccc9O)nnc8N)cn7)CC6)C5)CC4)CC3)no2)C(C)C)cc1", "note": "(single isomer, unassigned) [compound 596]", "values": [
      {"measurement": "Dmax", "setting": "[3]", "result": "> 75", "unit": "%"},
      {"measurement": "DC50", "setting": "[4]", "result": "< 2.5", "unit": "nM"}
    ]},
    {"smiles": "CC(=O)NCc1ncsc1-c1ccc([C@H](C)NC(=O)[C@@H]2C[C@@H](O)CN2C(=O)C(c2cc(OCCN3CCN(CCOc4cc(N5C6CCC5CN(c5cc(-c7ccccc7O)nnc5N)C6)ccn4)CC3)no2)C(C)C)cc1", "note": "(stereo partly drawn) [compound 174, (2S,4R)-N-((S)-1-(4-(4-(acetamidomethyl)thiazol-5-yl)phenyl)ethyl)-1-(2-(3-(2-(4-(2-((4-(3-(3-amino-6-(2-hydroxyphenyl)pyridazin-4-yl)-3,8-diazabicyclo[3.2.1]octan-8-yl)pyridin-2-yl)oxy)ethyl)piperazin-1-yl)ethoxy)isoxazol-5-yl)-3-methylbutanoyl)-4-hydroxypyrrolidine-2-carboxamide]", "values": [
      {"measurement": "DC50", "setting": "[1]", "result": "10 to 30", "unit": "nM"},
      {"measurement": "Dmax", "setting": "[5]", "result": "> 75", "unit": "%"}
    ]},
    {"smiles": "Cc1ncsc1-c1ccc([C@H](C)NC(=O)[C@@H]2C[C@@H](O)CN2C(=O)[C@@H](c2cc(OC/C=C/c3ccc(O[C@H]4C[C@H](Oc5cc(N6C7CCC6CN(c6cc(-c8ccccc8O)nnc6N)C7)ccn5)C4)cn3)no2)C(C)C)cn1", "note": "[compound 207, (2S,4R)-1-((2R)-2-(3-(((E)-3-(5-((1r,3R)-3-((4-(3-(3-amino-6-(2-hydroxyphenyl)pyridazin-4-yl)-3,8-diazabicyclo[3.2.1]octan-8-yl)pyridin-2-yl)oxy)cyclobutoxy)pyridin-2-yl)allyl)oxy)isoxazol-5-yl)-3-methylbutanoyl)-4-hydroxy-N-((S)-1-(6-(4-methylthiazol-5-yl)pyridin-3-yl)ethyl)pyrrolidine-2-carboxamide]", "values": [
      {"measurement": "DC50", "setting": "[1]", "result": "< 2.5", "unit": "nM"},
      {"measurement": "Dmax", "setting": "[5]", "result": "> 75", "unit": "%"}
    ]},
    {"smiles": "Cc1ncsc1-c1ccc(CNC(=O)[C@@H]2C[C@@H](O)CN2C(=O)[C@H](c2cc(OCCN3CCN(CCOc4cc(N5C6CCC5CN(c5cc(-c7ccccc7O)nnc5N)C6)ccn4)CC3)no2)C(C)C)cc1", "note": "[compound 41, (2S,4R)-1-[(2S)-2-[3-[2-(4-[2-[(4-[3-[3-amino-6-(2-hydroxyphenyl)pyridazin-4-yl]-3,8-diazabicyclo[3.2.1]octan-8-yl]pyridin-2-yl)oxy]ethyl]piperazin-1-yl)ethoxy]-1,2-oxazol-5-yl]-3-methylbutanoyl]-4-hydroxy-N-[[4-(4-methyl-1,3-thiazol-5-yl)phenyl]methyl]pyrrolidine-2-carboxamide]", "values": [
      {"measurement": "DC50", "setting": "[1]", "result": "10 to 30", "unit": "nM"},
      {"measurement": "Dmax", "setting": "[6]", "result": "> 75", "unit": "%"}
    ]},
    {"smiles": "Cc1ncsc1-c1ccc(CNC(=O)[C@@H]2C[C@@H](O)CN2C(=O)[C@@H](NC(=O)COCCOCCOCCOCCOCCOCCOCCn2cc(-c3cc(-c4ccccc4O)nnc3N)cn2)C(C)(C)C)cc1", "note": "[compound 5, (2S,4R)-1-((S)-26-(4-(3-amino-6-(2-hydroxyphenyl)pyridazin-4-yl)-1H-pyrazol-1-yl)-2-(tert-butyl)-4-oxo-6,9,12,15,18,21,24-heptaoxa-3-azahexacosanoyl)-4-hydroxy-N-(4-(4-methylthiazol-5-yl)benzyl)pyrrolidine-2-carboxamide]", "values": [
      {"measurement": "DC50", "setting": "[1]", "result": "> 30", "unit": "nM"},
      {"measurement": "Dmax", "setting": "[6]", "result": "> 75", "unit": "%"}
    ]},
    {"smiles": "Cc1ncsc1-c1ccc([C@H](C)NC(=O)[C@@H]2C[C@@H](O)CN2C(=O)[C@@H](c2cc(OC3CN(CCN4CCC(O[C@H]5C[C@H](Oc6cc(N7C8CCC7CN(c7cc(-c9ccccc9O)nnc7N)C8)ccn6)C5)CC4)C3)no2)C(C)C)cc1", "note": "[compound 371, (2S,4R)-1-((2R)-2-(3-((1-(2-(4-((1r,3r)-3-((4-(3-(3-amino-6-(2-hydroxyphenyl)pyridazin-4-yl)-3,8-diazabicyclo[3.2.1]octan-8-yl)pyridin-2-yl)oxy)cyclobutoxy)piperidin-1-yl)ethyl)azetidin-3-yl)oxy)isoxazol-5-yl)-3-methylbutanoyl)-4-hydroxy-N-((S)-1-(4-(4-methylthiazol-5-yl)phenyl)ethyl)pyrrolidine-2-carboxamide]", "values": [
      {"measurement": "Dmax", "setting": "SW1573, % degraded, when tested at the top concentration of between 0.3 and 10 μM, read-out: BRM Dmax (%)", "result": "> 75", "unit": "%"},
      {"measurement": "DC50", "setting": "[2]", "result": "< 2.5", "unit": "nM"}
    ]},
    {"smiles": "Cc1ncsc1-c1ccc([C@H](C)NC(=O)[C@@H]2C[C@@H](O)CN2C(=O)[C@@H](NC(=O)COCCOCCOCCOCCOCCOCCOCCOc2cc(N3C4CCC3CN(c3cc(-c5ccccc5O)nnc3N)C4)ccn2)C(C)(C)C)cc1", "note": "[compound 35, (2S,4R)-1-[(2S)-2-[1-(4-[3-[3-amino-6-(2-hydroxyphenyl)pyridazin-4-yl]-3,8-diazabicyclo[3.2.1]octan-8-yl]pyridin-2-yl)-1,4,7,10,13,16,19,22-octaoxatetracosan-24-amido]-3,3-dimethylbutanoyl]-4-hydroxy-N-[(1S)-1-[4-(4-methyl-1,3-thiazol-5-yl)phenyl]ethyl]pyrrolidine-2-carboxamide]", "values": [
      {"measurement": "DC50", "setting": "[1]", "result": "2.5 to 10", "unit": "nM"},
      {"measurement": "Dmax", "setting": "[6]", "result": "> 75", "unit": "%"}
    ]}
  ]
}
